Measurements published in patent publication US12635683B2, “Preservation of natural and bioengineered tissues and methods of storing and transport” (LifeNet Health, priority 2021, dated 2026).

Test system: Epiderm construct
Experiment: Construct viability after vitrification and rewarming (metabolic activity)
Format: cell-based, human
Conditions: αT and QVD added together to culture medium before and after vitrification
Protocol: Tissue Culture: Human epidermal models were obtained from commercial sources and maintained according to their specifications. All constructs were incubated in appropriate media for 24 hours under physiological tissue culture conditions before initiating experiments. Fresh controls were used in each experiment and experimental treatment groups were assessed over 4-5 days post-rewarming.
Vitrification Methods: The constructs were gradually infiltrated with precooled vitrification formulations at 4° C. in six steps with 0%, 12.5%, 25%, 50%, 75% and 100% of each formulation to achieve a final cryoprotectant concentration. After rewarming, the vitrification solution was removed in seven sequential steps at 4° C. into culture medium as previously described (see Song et al., Vitreous cryopreservation maintains the function of vascular grafts, Nature Biotechnology, 8(3):296-9, Epub 2000/03/04, doi:10.1038/73737, PubMed PMID: 10700144 (2000); and Song et al., Vitreous Preservation of Rabbit Articular Cartilage, Cell Preservation Technology, 2 (1); 67-74 (2004)).
Once loaded with vitrification solution the construct can be cooled to storage temperature and rewarmed using several methods. (1) The constructs were placed in glass scintillation vials (Diam.×H, 25 mm×60 mm) containing 1.5 mL of pre-cooled vitrification solution with 0.3 mL solution inside the well insert. Then 1 mL of 2-methylbutane (isopentane, freezing point: −160° C., density: 0.62) was placed on top of the vitrification solution in the vial and 0.2 mL inside the well insert at 4° C. to prevent direct air contact. Samples were cooled rapidly (approximately 45° C./minute) to −100° C. by placing the samples in a pre-cooled bath containing isopentane in a −135° C. mechanical storage freezer. Upon achieving −100° C. the specimens were removed from the bath and stored at −135° C. in the mechanical storage freezer, which results in slow cooling (3° C./minute) to −135° C. The samples were held at −135° C. for a minimum of 24 hours. The constructs were rewarmed in two stages, first, slow warming to −100° C. (approximately 30° C./minute) at the top of the mechanical storage freezer and then rapidly warmed to either 0° C. or ±−10° C. approximately 225° C./min) in a 30% ME2SO bath at room temperature. (2) The constructs in inserts are placed within the well of a deep well plate. There is 0.6 mL vitrification solution in the well and 0.2 mL solution in the insert. […]
Resazurin Assay: Was used to measure the metabolic activity and has the advantage of being non-toxic so constructs can be assessed before and several times after treatment. […]

SMILES	Effect of additive in culture medium on construct viability	Effect of additive in culture medium on construct viability (listed as αT)	Effect of additive in culture medium on construct viability (listed as QVD)
Cc1c(C)c2c(c(C)c1O)CC[C@@](C)(CCC[C@H](C)CCC[C@H](C)CCCC(C)C)O2 [α-tocopherol]	improved viability	significant improvement	–
CC(C)[C@H](NC(=O)c1ccc2ccccc2n1)C(=O)N[C@@H](CC(=O)O)C(=O)COc1c(F)cccc1F [Q-VD-OPH, quinoline-Val-Asp-difluorophenoxymethyl ketone]	improved viability	–	significant improvement
